Results: ChEMBL document CHEMBL3046589, “Synthesis and Fungicidal Activities of (-Methoxybenzyl) isoxazoles” (2000)

Tests used:
Type in all cases: functional
Podosphaera fuliginea [1] = test: Preventive fungicidal activity against Podosphaera fuliginea infected cucumber leaves at 7.8 ppm after by foliar application method
Podosphaera fuliginea [2] = test: Curative fungicidal activity against Podosphaera fuliginea infected cucumber leaves at 31.3 ppm after by foliar application method
Podosphaera fuliginea [3] = test: Preventive fungicidal activity against Podosphaera fuliginea infected cucumber leaves at 31.3 ppm after by foliar application method
[4] = system: Pseudoperonospora cubensis; test: Curative fungicidal activity against Pseudoperonospora cubensis infected cucumber leaves at 31.3 ppm after by foliar application method
[5] = system: Pseudoperonospora cubensis; test: Preventive fungicidal activity against Pseudoperonospora cubensis infected cucumber leaves at 7.8 ppm after by foliar application method
[6] = system: Pseudoperonospora cubensis; test: Curative fungicidal activity against Pseudoperonospora cubensis infected cucumber leaves at 7.8 ppm after by foliar application method
Myzus persicae [7] = test: Insecticidal activity against Myzus persicae (green peach aphid) nymphs fed with chinese cabbage leaf assessed as mortality at 15.6 ppm applied through spraying measured after 48 hr
[8] = system: Pseudoperonospora cubensis; test: Preventive fungicidal activity against Pseudoperonospora cubensis infected cucumber leaves at 31.3 ppm after by foliar application method
Myzus persicae [9] = test: Insecticidal activity against Myzus persicae (green peach aphid) nymphs fed with Chinese cabbage leaf assessed as mortality at 62.5 ppm applied through spraying measured after 48 hr
Podosphaera fuliginea [10] = test: Curative fungicidal activity against Podosphaera fuliginea infected cucumber leaves at 7.8 ppm after by foliar application method
Myzus persicae [11] = test: Insecticidal activity against Myzus persicae (green peach aphid) nymphs fed with Chinese cabbage leaf assessed as mortality at 250 ppm applied through spraying measured after 48 hr
[12] = system: Pseudoperonospora cubensis; test: Preventive fungicidal activity against Pseudoperonospora cubensis infected cucumber leaves at 500 ppm after by foliar application method
Podosphaera fuliginea [13] = test: Preventive fungicidal activity against Podosphaera fuliginea infected cucumber leaves at 125 ppm after by foliar application method
Podosphaera fuliginea [14] = test: Preventive fungicidal activity against Podosphaera fuliginea infected cucumber leaves at 500 ppm after by foliar application method
[15] = system: Pseudoperonospora cubensis; test: Preventive fungicidal activity against Pseudoperonospora cubensis infected cucumber leaves at 125 ppm after by foliar application method
Botrytis cinerea = test: Preventive fungicidal activity against Botryotinia fuckeliana infected cucumber leaves at 500 ppm after by foliar application method

## COC(c1cc(C)no1)c1ccccc1/C=N/N=C(\C)c1ccc(Cl)c(Cl)c1 (stereo not drawn)
Podosphaera fuliginea [1]
  Activity: 100%
Podosphaera fuliginea [2]
  Activity: 70%
Podosphaera fuliginea [3]
  Activity: 100%
[4]
  Activity: 100%
[5]
  Activity: 30%
[6]
  Activity: 100%
Myzus persicae [7]
  mortality at 15.6 ppm: 0%
[8]
  Activity: 70%
Myzus persicae [9]
  mortality at 62.5 ppm: 3%
Podosphaera fuliginea [10]
  Activity: 30%
Myzus persicae [11]
  mortality at 250 ppm: 3%

## CO/N=C(\c1ccon1)c1ccccc1COc1cc(C)ccc1C
Podosphaera fuliginea [1]
  Activity: 100%
Podosphaera fuliginea [2]
  Activity: 0%
Podosphaera fuliginea [3]
  Activity: 100%
[4]
  Activity: 100%
[5]
  Activity: 0%
[6]
  Activity: 100%
[8]
  Activity: 0%
Podosphaera fuliginea [10]
  Activity: 0%

## COC(c1cc(C)no1)c1ccccc1/C=N/N=C(\C)c1cccc(Cl)c1 (stereo not drawn)
[12]
  Activity: 50%

## COC(c1cc(C)no1)c1ccccc1/C=N/N=C(\C)c1ccc(F)cc1 (stereo not drawn)
[12]
  Activity: 50%
Podosphaera fuliginea [13]
  Activity: 90%

## COC(c1cc(C)no1)c1ccccc1/C=N/N=C(\C)c1ccccc1Br (stereo not drawn)
Podosphaera fuliginea [14]
  Activity: 90%
[12]
  Activity: 50%

## COC(c1cc(C)no1)c1ccccc1/C=N/N=C(\C)c1ccc(Br)cc1 (stereo not drawn)
Podosphaera fuliginea [1]
  Activity: 100%
Podosphaera fuliginea [2]
  Activity: 70%
Podosphaera fuliginea [3]
  Activity: 100%
[4]
  Activity: 100%
[5]
  Activity: 50%
[6]
  Activity: 100%
[8]
  Activity: 70%
Podosphaera fuliginea [10]
  Activity: 50%

## COC(c1cc(C)no1)c1ccccc1/C=N/N=C(\C)c1ccc(C)cc1 (stereo not drawn)
[12]
  Activity: 50%
Podosphaera fuliginea [3]
  Activity: 90%

## COc1ccc(/C(C)=N/N=C/c2ccccc2C(OC)c2cc(C)no2)cc1 (stereo not drawn)
[15]
  Activity: 50%
Podosphaera fuliginea [13]
  Activity: 90%

## COC(c1cc(C)no1)c1ccccc1/C=N/N=C(\C)c1ccc(C(F)(F)F)cc1 (stereo not drawn)
Podosphaera fuliginea [1]
  Activity: 90%
Myzus persicae [7]
  mortality at 15.6 ppm: 0%
[8]
  Activity: 50%
Myzus persicae [9]
  mortality at 62.5 ppm: 1%
Myzus persicae [11]
  mortality at 250 ppm: 2%

## COC(c1cc(C)no1)c1ccccc1/C=N/N=C(\C)c1ccc(OC(F)(F)F)cc1 (stereo not drawn)
Podosphaera fuliginea [1]
  Activity: 100%
Podosphaera fuliginea [2]
  Activity: 45%
Podosphaera fuliginea [3]
  Activity: 100%
[4]
  Activity: 100%
[5]
  Activity: 50%
[6]
  Activity: 100%
[8]
  Activity: 60%
Podosphaera fuliginea [10]
  Activity: 0%

## COC(c1cc(C)no1)c1ccccc1/C=N/N=C(\C)c1ccc(Cl)cc1Cl (stereo not drawn)
[12]
  Activity: 50%
Podosphaera fuliginea [3]
  Activity: 90%

## COC(c1ccon1)c1ccccc1COc1cc(C)ccc1C (stereo not drawn)
Botrytis cinerea
  Activity: 50%
[12]
  Activity: 50%
Podosphaera fuliginea [3]
  Activity: 90%

## COC(c1cc(C)on1)c1ccccc1COc1cc(C)ccc1C (stereo not drawn)
Botrytis cinerea
  Activity: 50%
[12]
  Activity: 50%
Podosphaera fuliginea [3]
  Activity: 90%

## COC(c1cc(C)no1)c1ccccc1COc1cc(C)ccc1C (stereo not drawn)
Podosphaera fuliginea [1]
  Activity: 90%
Botrytis cinerea
  Activity: 50%
[12]
  Activity: 50%

## COC(c1ccccc1COc1cc(C)ccc1C)c1c(C)noc1C (stereo not drawn)
Botrytis cinerea
  Activity: 50%
Podosphaera fuliginea [14]
  Activity: 90%
[12]
  Activity: 50%

## COC(C1=NOCC1)c1ccccc1COc1cc(C)ccc1C (stereo not drawn)
Botrytis cinerea
  Activity: 50%
[12]
  Activity: 50%
Podosphaera fuliginea [13]
  Activity: 90%

## COC(c1ccccc1COc1cc(C)ccc1C)C1CC(C)=NO1 (stereo not drawn)
Botrytis cinerea
  Activity: 50%
Podosphaera fuliginea [14]
  Activity: 90%
[12]
  Activity: 50%

## COC(c1cc(C)no1)c1ccccc1Oc1ccccc1 (stereo not drawn)
Botrytis cinerea
  Activity: 50%
[12]
  Activity: 50%

## COC(c1cc(C)no1)c1ccccc1Oc1ncc(C(F)(F)F)cc1Cl (stereo not drawn)
Botrytis cinerea
  Activity: 50%
[12]
  Activity: 50%

## COC(c1cc(C)no1)c1ccccc1Oc1cc(Oc2ccccc2C#N)ncn1 (stereo not drawn)
Botrytis cinerea
  Activity: 50%
Podosphaera fuliginea [14]
  Activity: 90%
[12]
  Activity: 50%

## COC(c1cc(C)no1)c1ccccc1COc1ccccc1C (stereo not drawn)
Botrytis cinerea
  Activity: 50%
[12]
  Activity: 50%
Podosphaera fuliginea [3]
  Activity: 90%

## COC(c1cc(C)no1)c1ccccc1/C=C/c1ccc(Cl)cc1 (stereo not drawn)
Botrytis cinerea
  Activity: 50%
Podosphaera fuliginea [14]
  Activity: 90%
[12]
  Activity: 50%

## COC(c1cc(C)no1)c1ccccc1COc1ccc(C(F)(F)F)cn1 (stereo not drawn)
Botrytis cinerea
  Activity: 50%
[12]
  Activity: 50%
Podosphaera fuliginea [13]
  Activity: 90%

## COC(c1cc(C)no1)c1ccccc1COc1ncc(C(F)(F)F)cc1Cl (stereo not drawn)
Botrytis cinerea
  Activity: 50%
[12]
  Activity: 50%
Podosphaera fuliginea [3]
  Activity: 90%

## COC(c1cc(C)no1)c1ccccc1CO/N=C(\C)c1ccc(Cl)cc1 (stereo not drawn)
Botrytis cinerea
  Activity: 50%
[12]
  Activity: 50%
Podosphaera fuliginea [3]
  Activity: 90%

## COC(c1cc(C)no1)c1ccccc1CO/N=C(\SC)c1ccc(Cl)cc1 (stereo not drawn)
Botrytis cinerea
  Activity: 50%
[12]
  Activity: 50%
Podosphaera fuliginea [13]
  Activity: 90%

## COC(c1cc(C)no1)c1ccccc1/C=N/OC(C)c1ccc(Cl)cc1 (stereo not drawn)
Podosphaera fuliginea [1]
  Activity: 90%
Botrytis cinerea
  Activity: 50%
[12]
  Activity: 50%

## COC(c1cc(C)no1)c1ccccc1/C=N/N=C(\C)c1ccc(Cl)cc1 (stereo not drawn)
Podosphaera fuliginea [1]
  Activity: 90%
Botrytis cinerea
  Activity: 50%
Myzus persicae [7]
  mortality at 15.6 ppm: 0%
[8]
  Activity: 50%
Myzus persicae [9]
  mortality at 62.5 ppm: 1%
Myzus persicae [11]
  mortality at 250 ppm: 2%

## COC(c1cc(C)no1)c1ccccc1/C=N/N=C(\C)c1ccccc1 (stereo not drawn)
Podosphaera fuliginea [14]
  Activity: 90%
[12]
  Activity: 50%

## COC(c1cc(C)no1)c1ccccc1/C=N/N=C(\C)c1ccccc1Cl (stereo not drawn)
Podosphaera fuliginea [14]
  Activity: 90%
[12]
  Activity: 50%

## CC(C)C(C(=O)OC(C#N)c1cccc(Oc2ccccc2)c1)c1ccc(OC(F)F)cc1 (stereo not drawn) [FLUCYTHRINATE]
Myzus persicae [7]
  mortality at 15.6 ppm: 3%
Myzus persicae [9]
  mortality at 62.5 ppm: 3%
Myzus persicae [11]
  mortality at 250 ppm: 3%

## CNC(=O)/C(=N/OC)c1ccccc1Oc1ccccc1 [METOMINOSTROBIN]
Podosphaera fuliginea [1]
  Activity: 70%
Podosphaera fuliginea [2]
  Activity: 40%
Podosphaera fuliginea [3]
  Activity: 100%
[4]
  Activity: 97%
[5]
  Activity: 40%
[6]
  Activity: 70%
[8]
  Activity: 60%
Podosphaera fuliginea [10]
  Activity: 0%
